Active and inactive are the calls of the source. The rule behind the calls is not given here.
Legend:
[1] = target: T1, Transitional endoplasmic reticulum ATPase (Homo sapiens, UniProt P55072); experiment: Inhibition of p97 (unknown origin) ATPase activity up to 200 uM after 10 mins by malachite green dye based visible spectrophotometry
Target sequence in this assay (P55072 2-806 limits assumed): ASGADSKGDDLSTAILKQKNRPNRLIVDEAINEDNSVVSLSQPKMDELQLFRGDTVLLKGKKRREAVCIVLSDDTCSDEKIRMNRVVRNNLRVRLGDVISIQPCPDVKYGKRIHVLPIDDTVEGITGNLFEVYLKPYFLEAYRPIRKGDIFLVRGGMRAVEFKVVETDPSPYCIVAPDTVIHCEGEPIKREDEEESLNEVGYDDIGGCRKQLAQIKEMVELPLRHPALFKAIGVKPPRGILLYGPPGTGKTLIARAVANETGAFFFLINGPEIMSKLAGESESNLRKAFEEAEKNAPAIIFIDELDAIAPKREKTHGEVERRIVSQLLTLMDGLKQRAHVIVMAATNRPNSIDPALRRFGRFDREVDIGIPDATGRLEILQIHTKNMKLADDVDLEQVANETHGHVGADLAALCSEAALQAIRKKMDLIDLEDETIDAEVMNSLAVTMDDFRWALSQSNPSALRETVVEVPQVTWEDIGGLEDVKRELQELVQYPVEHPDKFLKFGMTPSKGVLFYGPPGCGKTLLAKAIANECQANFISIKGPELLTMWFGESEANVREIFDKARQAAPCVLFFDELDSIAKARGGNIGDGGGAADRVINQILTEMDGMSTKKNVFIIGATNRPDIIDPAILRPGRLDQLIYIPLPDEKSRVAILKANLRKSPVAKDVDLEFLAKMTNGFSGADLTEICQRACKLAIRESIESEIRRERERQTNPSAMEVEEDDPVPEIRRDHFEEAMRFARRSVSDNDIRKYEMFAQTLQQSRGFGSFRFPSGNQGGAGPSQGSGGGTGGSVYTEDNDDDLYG

[2] = target: T1, Transitional endoplasmic reticulum ATPase; experiment: Inhibition of p97 (unknown origin) ATPase in HEK293 cells expressing T cell receptor alpha-GFP assessed as level of T cell receptor alpha-GFP rescued by flow cytometry; format: cell-based
Target sequence in this assay (P55072 2-806 limits assumed): as above

[3] = target: Vesicle-fusing ATPase (Homo sapiens) (UniProt P46459); experiment: Inhibition of type 2 AAA+ N-ethylmaleimide sensitive factor (unknown origin) up to 200 uM
[4] = target: T1, Transitional endoplasmic reticulum ATPase; experiment: Inhibition of p97 (unknown origin) ATPase activity after 10 mins by malachite green dye based visible spectrophotometry
Target sequence in this assay (P55072 whole entry): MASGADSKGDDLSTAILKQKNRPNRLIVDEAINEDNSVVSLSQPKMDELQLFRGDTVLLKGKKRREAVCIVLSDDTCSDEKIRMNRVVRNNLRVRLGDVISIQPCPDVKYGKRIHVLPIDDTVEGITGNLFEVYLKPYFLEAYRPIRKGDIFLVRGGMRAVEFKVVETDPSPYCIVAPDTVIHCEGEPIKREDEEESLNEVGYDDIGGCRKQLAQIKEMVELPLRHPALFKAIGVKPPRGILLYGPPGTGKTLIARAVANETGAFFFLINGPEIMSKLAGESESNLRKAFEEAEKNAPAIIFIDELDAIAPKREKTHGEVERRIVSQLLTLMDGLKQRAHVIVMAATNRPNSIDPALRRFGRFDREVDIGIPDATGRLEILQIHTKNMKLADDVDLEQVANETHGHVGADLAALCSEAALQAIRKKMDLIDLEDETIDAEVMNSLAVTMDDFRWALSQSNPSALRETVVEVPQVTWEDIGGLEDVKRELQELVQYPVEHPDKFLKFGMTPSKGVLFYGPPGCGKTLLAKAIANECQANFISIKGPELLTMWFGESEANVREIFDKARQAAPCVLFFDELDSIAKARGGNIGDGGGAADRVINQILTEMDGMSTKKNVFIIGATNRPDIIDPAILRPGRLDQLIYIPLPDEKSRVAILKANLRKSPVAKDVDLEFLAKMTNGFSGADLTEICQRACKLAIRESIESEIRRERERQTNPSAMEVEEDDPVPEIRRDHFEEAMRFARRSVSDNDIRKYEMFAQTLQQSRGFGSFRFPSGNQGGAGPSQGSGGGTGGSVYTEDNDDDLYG

[5] = target: chaperonin GroEL (Escherichia coli) (UniProt P0A6F5); experiment: Inhibition of Escherichia coli chaperonin GroEL up to 200 uM
[6] = target: T1, Transitional endoplasmic reticulum ATPase; settings: 200 uM
Target sequence in this assay (P55072 2-806 limits assumed): as the sequence (P55072 2-806 limits assumed) above
Description: Inhibition of p97 cysteine-less mutant (unknown origin) at 200 uM after 10 mins by malachite green dye based visible spectrophotometry

[7] = target: Transitional endoplasmic reticulum ATPase (Homo sapiens, UniProt P55072, C209A); experiment: Inhibition of p97-C209A mutant (unknown origin) after 10 mins by malachite green dye based visible spectrophotometry
[8] = target: Transitional endoplasmic reticulum ATPase (Homo sapiens, UniProt P55072, C522A); experiment: Inhibition of p97-C522A mutant (unknown origin) after 10 mins by malachite green dye based visible spectrophotometry
[9] = target: ATP-dependent clpX-like chaperone, mitochondrial (Homo sapiens) (UniProt O76031); experiment: Inhibition of type 1 AAA+ chaperone ClpX (unknown origin) up to 200 uM
[10] = target: T1, Transitional endoplasmic reticulum ATPase; settings: 100 uM
Target sequence in this assay (P55072 2-806 limits assumed): as above
Description: Reversible inhibition of p97 (unknown origin) ATPase activity at 100 uM after prolonged incubation of 6 hrs followed by dialysis for 2 hrs by malachite green dye based visible spectrophotometry

[11] = target: T1, Transitional endoplasmic reticulum ATPase; experiment: Inhibition of p97 (unknown origin) ATPase in HEK293 cells expressing UbG76VGFP fusion protein assessed as level of UbG76VGFP rescued by measuring GFP fluorescence loss by flow cytometry; format: cell-based
Target sequence in this assay (P55072 2-806 limits assumed): as above

[12] = target: T1, Transitional endoplasmic reticulum ATPase; experiment: Reversible inhibition of p97 (unknown origin) ATPase activity after prolonged incubation followed by dialysis
Target sequence in this assay (P55072 2-806 limits assumed): as above

Sequence of Vesicle-fusing ATPase (Homo sapiens) (P46459 whole entry): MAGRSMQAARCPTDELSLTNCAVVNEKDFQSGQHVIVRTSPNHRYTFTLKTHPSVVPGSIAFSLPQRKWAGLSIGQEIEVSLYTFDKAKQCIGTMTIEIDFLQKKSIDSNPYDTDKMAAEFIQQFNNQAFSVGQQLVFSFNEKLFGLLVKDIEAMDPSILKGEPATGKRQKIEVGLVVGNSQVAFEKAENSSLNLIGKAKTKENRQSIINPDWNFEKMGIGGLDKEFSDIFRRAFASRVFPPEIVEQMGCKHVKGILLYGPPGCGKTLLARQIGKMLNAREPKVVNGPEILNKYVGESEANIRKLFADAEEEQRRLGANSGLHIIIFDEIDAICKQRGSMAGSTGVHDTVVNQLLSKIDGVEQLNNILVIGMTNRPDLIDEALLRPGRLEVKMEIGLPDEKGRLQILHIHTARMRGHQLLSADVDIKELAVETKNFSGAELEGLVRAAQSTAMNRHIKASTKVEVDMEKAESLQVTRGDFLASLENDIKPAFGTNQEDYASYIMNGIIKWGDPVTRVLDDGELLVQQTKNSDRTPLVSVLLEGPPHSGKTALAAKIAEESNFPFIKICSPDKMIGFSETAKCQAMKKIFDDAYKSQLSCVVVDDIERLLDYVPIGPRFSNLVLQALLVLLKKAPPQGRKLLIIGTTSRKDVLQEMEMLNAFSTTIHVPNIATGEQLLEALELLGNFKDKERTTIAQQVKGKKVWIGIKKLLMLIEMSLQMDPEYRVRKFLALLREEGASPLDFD
Sequence of ATP-dependent clpX-like chaperone, mitochondrial (Homo sapiens) (O76031 whole entry): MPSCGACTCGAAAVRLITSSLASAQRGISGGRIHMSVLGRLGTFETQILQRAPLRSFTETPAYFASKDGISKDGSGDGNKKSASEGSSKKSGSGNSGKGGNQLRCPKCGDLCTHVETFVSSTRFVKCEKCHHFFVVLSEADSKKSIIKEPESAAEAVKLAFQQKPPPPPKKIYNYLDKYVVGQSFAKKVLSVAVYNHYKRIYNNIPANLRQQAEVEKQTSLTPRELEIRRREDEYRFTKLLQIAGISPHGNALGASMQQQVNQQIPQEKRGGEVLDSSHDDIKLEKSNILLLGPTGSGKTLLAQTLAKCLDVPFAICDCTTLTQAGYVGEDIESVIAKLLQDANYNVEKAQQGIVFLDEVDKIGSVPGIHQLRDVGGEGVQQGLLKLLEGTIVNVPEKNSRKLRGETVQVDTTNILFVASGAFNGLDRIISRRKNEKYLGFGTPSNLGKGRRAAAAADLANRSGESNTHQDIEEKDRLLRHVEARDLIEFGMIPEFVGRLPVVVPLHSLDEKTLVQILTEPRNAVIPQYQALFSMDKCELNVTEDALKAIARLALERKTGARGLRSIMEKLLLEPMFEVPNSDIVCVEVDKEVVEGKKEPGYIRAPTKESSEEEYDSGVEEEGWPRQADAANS
Sequence of Transitional endoplasmic reticulum ATPase (Homo sapiens, UniProt P55072, C209A) (P55072 2-806 C209A limits assumed): as the sequence (P55072 2-806 limits assumed) above, with C208A counted along it
Sequence of chaperonin GroEL (Escherichia coli) (P0A6F5 whole entry, looked up): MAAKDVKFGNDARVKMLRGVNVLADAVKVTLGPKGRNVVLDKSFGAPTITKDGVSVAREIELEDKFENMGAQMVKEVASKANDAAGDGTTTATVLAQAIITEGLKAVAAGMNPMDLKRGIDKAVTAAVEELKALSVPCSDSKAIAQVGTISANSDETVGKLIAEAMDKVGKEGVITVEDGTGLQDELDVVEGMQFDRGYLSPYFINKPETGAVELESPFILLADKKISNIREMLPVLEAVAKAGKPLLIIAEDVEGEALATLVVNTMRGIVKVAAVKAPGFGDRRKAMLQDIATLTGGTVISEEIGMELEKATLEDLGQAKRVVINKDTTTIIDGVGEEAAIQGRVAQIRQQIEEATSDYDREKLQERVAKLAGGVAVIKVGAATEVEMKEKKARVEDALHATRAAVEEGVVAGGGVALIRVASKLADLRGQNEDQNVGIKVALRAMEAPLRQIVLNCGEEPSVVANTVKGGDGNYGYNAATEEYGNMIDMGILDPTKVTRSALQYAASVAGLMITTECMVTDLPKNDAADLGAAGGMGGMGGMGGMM
Sequence of Transitional endoplasmic reticulum ATPase (Homo sapiens, UniProt P55072, C522A) (P55072 2-806 C522A limits assumed): as the sequence (P55072 2-806 limits assumed) above, with C521A counted along it

How did the inhibition [1] turn out when C=C1OC(=O)[C@@]2(C1=O)[C@H](/C=C/C=C/CCC)C=C[C@@H](OC(C)=O)[C@@H]2OC(C)=O was run?
The inhibition was “inactive”.

How did the inhibition [2] turn out when C=C1OC(=O)C2(C1=O)[C@H](/C=C/C=C/CCC)C=C[C@@H](O)[C@@H]2O (mixture of isomers) was run?
The inhibition was “Dose-dependent effect”.

What about the inhibition [3] of the same molecule?
The inhibition was “inactive”.

What about the IC50 [4] of the same molecule?
The IC50 was 31.2 µM.

What about the inhibition [5] of the same molecule?
Its inhibition is “inactive”.

And the inhibition [6]?
Its inhibition is “inactive”.

And the IC50 [7]?
The IC50 was 18 µM.

And the IC50 [8]?
Its IC50 is 26.3 µM.

What about the inhibition [9] of the same molecule?
The inhibition was “inactive”.

What about the inhibition [10] of the same molecule?
Its inhibition is “Active”.

What about the inhibition [11] of the same molecule?
Its inhibition is “Dose-dependent effect”.

For C[C@H]1CCC/C=C/C(=O)c2c(O)cc(O)cc2CC(=O)O1, which inhibition [12] is on record?
Its inhibition is “inactive”.

For C=C1OC(=O)[C@]2(C1=O)[C@H](/C=C/C=C/CCC)C=C[C@@H](OC(C)=O)[C@@H]2OC(C)=O, which inhibition [1] is on record?
The inhibition was “inactive”.

— ChEMBL document CHEMBL3797126, “Oxaspirol B with p97 Inhibitory Activity and Other Oxaspirols from Lecythophora sp. FL1375 and FL1031, Endolichenic Fungi Inhabiting Parmotrema tinctorum and Cladonia evansii” (J Nat Prod, 2016)
